# Results: patent publication US4511560A, “Antibiotic substances DC-45, and their use as medicaments” (Kyowa Hakko Kogyo Kabushiki Kaisha, priority 1979, dated 1985)
# What was measured:
# Sarcoma 180 solid tumour = assay: Therapeutic effect on Sarcoma 180 solid tumour; assay type: in vivo, mice (male; ddy-strain); settings: 5.6 mg/kg, abdominally, single, day 7
# Description: Mice (male; ddy-strain; weight about 20 g; each group consisting of 6 mice) were used as test animals. Sarcoma 180 tumour cells (each 5×10^6cells) were subcutaneously implanted into each mouse at the armpit. 24 hours after this, a phosphate buffered physiological solution of sodium chloride (each 0.2 ml) was intraperitoneally administered to each mouse, a given amount of one of the substances DC-45-A, DC-45-B1 and DC-45-B2 being contained in each solution so that a different substance is administered to each group of mice. The said phosphate buffer contained NaCl (0.8 g/dl), KCl (0.02 g/dl), […] (1.15 g/dl) and KH2 PO4 (0.02 g/dl). For comparison purpose, a similar phosphate buffered solution containing mitomycin C (0.2 ml) was abdominally administered to the mice of another group 24 hours after the implantation of the tumour cells. Table 3 indicates the volume of the tumour (mean value in mm^3) and T/C (mean value; the tumour volume of the animal treated with the test compound/the tumour volume of the control animal treated with 0.2 ml of the phosphate buffered solution of sodium chloride, both being determined 7 days after the implantation.
# [1] = system: Lymphocytic leukaemia P-388 tumour; assay: Anti-tumour activity on Lymphocytic leukaemia P-388 tumour; assay type: in vivo, mice (male; CDF1 strain); settings: 5.6 mg/kg, abdominally
# Description: Mice (male; CDF1 strain; weight about 22 g; each group consisting of 5 mice) were used as the test animals. Lymphocytic leukaemia P-388 tumour cells (each 1×10^6 cells) were intraperitoneally implanted into each mouse. 24 hours after this, a phosphate buffered physiological solution of sodium chloride (each 0.2 ml) was intraperitioneally injected once into each mouse, a given amount of one substance being contained in each solution so that a different substance is administered to each group of mice. For comparison, a similar phosphate buffered solution of sodium chloride containing mitomycin C was admnistered abdominally to each mouse of a further control group. Table 4 indicates the average survival time in days and T/C (mean value of the survival days of the animals treated with the test compound/mean value of the survival days of the control animals treated with 0.2 ml of the phosphate buffered solution of sodium chloride).
smiles,measurement,setting,value
"CO[C@@]12[C@H](COC(N)=O)C3=C(C(=O)C(C)=C(N)C3=O)N1C[C@@H]1N[C@@H]12 [Mitomycin C, mitomycin C]",T/C (tumour volume),Sarcoma 180 solid tumour,0.20
same,Volume of tumour (mean value),Sarcoma 180 solid tumour,282 mm^3
same,Survival days,[1],18.0 ± 1.4 days
same,T/C (survival days),[1],1.88
